US20240115545A1, “PHARMACEUTICAL COMPOSITION CONTAINING B-LAPACHONE AS ACTIVE INGREDIENT FOR PREVENTION OR TREATMENT OF CHOLESTATIC LIVER DISEASE” (CUROME BIOSCIENCES CO., LTD., priority 2020, published 2024)

Experiments:
[1] = test system: peripheral blood mononuclear cells (PBMCs); assay: IL-1β and IL-18 expression in LPS and ATP treated peripheral blood mononuclear cells; assay type: cell-based, mice; conditions: LPS 200 ng/mL and ATP, 0.5, 1, 2 μM β-lapachone, 4 hours
Experimental: Considering that inflammatory cytokines mediate the pathogenic mechanism of cholestatic liver disease, the peripheral blood mononuclear cell model was used by a modified method of Boyum et al. (1968). Peripheral blood mononuclear cells isolated from healthy 8-week-old C57BL/6 male mice (Samtako, Korea) were maintained by primary culture in RPMI-1640 medium containing 10% FBS, 2 mM glutamine, 100 U penicillin, and 0.1 mg/ml streptomycin. Stable peripheral blood mononuclear cells (PBMCs) were treated with LPS at 200 ng/mL and ATP and β-lapachone at 0, 0.5, 1, 2 μM in the medium and, after 4 hours, the expression levels of IL-1β and IL-18 were investigated, and the results are shown in FIG. 15.

[2] = test system: inflammatory cytokine factors in the colon tissue; assay: mRNA levels of inflammatory cytokine factors in colon tissue of DSS mice (Example 6.2); assay type: in vivo; conditions: DSS + β-lapachone 80 mg/kg
Experimental: After 8-week-old C57BL/6 female mice (Samtako, Korea) were divided into each group (=10), each experimental group was fed a standard rodent diet supplemented with 3% (w/w) DSS in drinking water for the first 5 days to induce acute colitis and orally administered control (vehicle), β-lapachone 40 mg/kg, and β-lapachone 80 mg/kg for 14 days.
By the same method as in Example 6.1, experimental groups were divided into a DSS untreated group (Control), a DSS treated group, and a DSS+β-lapachone 80 mg/kg treated group, respectively, and treated. After the end of the experiment, the mice were sacrificed to remove the colon, and the accurate colon length was measured using a Vernier caliper, and is shown FIGS. 11A and 11B. In addition, the mRNA levels of genes of interleukin-1beta (IL-1β), interleukin-6 (IL-6), interleukin-18 (IL-18), interferon-γ (INF-γ), tumor necrosis factor-α (TNF-α), tumor necrosis factor-β (TNF-β), and monocyte chemoattractant protein-1 (MCP-1), which were inflammatory cytokine factors in the colon tissue, were analyzed by a real-time polymerase chain reaction through a conventional experiment procedure, and are shown in FIG. 12.

[3] = test system: DDC-induced cholestatic liver disease mice; assay: Blood indexes (ALT, AST, ALP, bilirubin), DDC and β-lapachone given together for 7 days (Example 3.1); assay type: in vivo
Experimental: DDC-induced cholestatic liver disease mouse animal models were prepared according to the method of Elisa Pose et al. by using 8-week-old C57BL/6 male mice (Samtako, Korea). Briefly, cholestatic liver disease was induced by feeding a standard rodent diet supplemented with 0.1% (w/w) DDC for 7 or 14 days. The 12-hour light and dark cycle was maintained and animals were allowed to free access to water. The standard rodent diet included medium wheat, wheat, corn, and corn gluten flour, and soybean oil (14% protein). All animal related procedures were reviewed and approved by the Institutional Animal Care and Use Committee of Korea Research Institute of Bioscience and Biotechnology (KRIBB), KRIBB-AEC-20165).
To investigate the effect of β-lapachone (BL) on the occurrence of cholestatic liver disease, both […] and β-lapachone were administered to mice to characterize animal models.
(§1) After 8-week-old C57BL/6 male mice (Samtako, Korea) were divided into each group (=6), the mice were fed a diet with normal (vehicle), control (DDC), DDC+β-lapachone 20 mg/kg, DDC+β-lapachone 40 mg/kg, DDC+β-lapachone 80 mg/kg, DDC+β-lapachone 100 mg/kg, and positive control DDC+ursodeoxycholic acid 100 mg/kg, and DDC+obeticholic acid 30 mg/kg (total 7 days). After 7 days of treatment, the mice were sacrificed and then the blood was collected from the heart. Thereafter, the levels of alanine aminotransferase (ALT), aspartate aminotransferase (AST), alkaline phosphatase (ALP), and bilirubin, which are blood indexes, were analyzed, and shown in FIG. 4.

[4] = test system: DDC-induced cholestatic liver disease mice; assay: Treatment effect on blood bilirubin and ALP in cholestatic liver disease-induced mice (Example 4); assay type: in vivo
Experimental: The treatment effect of β-lapachone in cholestatic liver disease-induced mouse animals were investigated. After 8-week-old C57BL/6 male mice (Samtako, Korea) were divided into each group (=6), each group excluding a control group was fed a diet containing 0.1% DDC for 3 days. Thereafter, the mice were fed a diet with DDC control (vehicle), DDC+β-lapachone 20 mg/kg, DDC+β-lapachone 40 mg/kg, DDC+β-lapachone 80 mg/kg, and positive control DDC+obeticholic acid 30 mg/kg for 4 days (total 7 days). After 7 days of feeding, the mice were sacrificed and then the blood was collected from the heart.

fibrosis-related genes = assay: mRNA levels of fibrosis-related genes in liver tissue (Example 3.2); assay type: in vivo, mice; conditions: β-lapachone with DDC in diet, 7 days; depending on the concentration
Experimental: as §1
After the cholestatic liver disease mouse animal models in Example 3.1 were sacrificed and the liver tissue was harvested therefrom, the mRNA levels of fibrosis-related genes were measured by a method similar to the method in Example 2.3.
In the cholestatic liver disease mouse models, the bile ducts were damaged and fibrosis was induced, by DDC, and accordingly, the transcriptional levels of collagen type 1 alpha 1 (Co|1α1), transforming growth factor beta 1 (TGF-β1), and collagen type I alpha 2 (Co|1α2), which are important factors in the development of fibrosis, were investigated, and the results are shown in FIG. 5.

macrophage line Raw264.7 = assay: IL-1β and TNF-α release (ELISA) from LPS and ATP treated Raw264.7 macrophages; assay type: cell-based; conditions: Raw264.7, LPS 100 ng/ml, 0.2, 0.5, 1, 2 μM β-lapachone 24 hours, ATP 2.5 mM 30 minutes
Experimental: The macrophage line Raw264.7 (ATCC TIB-71, Manassas, VA, USA) was subcultured in DMEM supplemented with 10% FBS and 1% penicillin/streptomycin.
For inflammation induction, RAW264.7 cells were suspended in DMEM containing 2% FBS, inoculated in a 12-well plate to a cell number of 4×10^5/ml, and incubated in 5% CO2 incubator at 37° C. for 24 hours. With replacement with fresh media, the cells were treated with appropriate concentrations of a corresponding substance, LPS (100 ng/ml), and 0.2, 0.5, 1, and 2 μM β-lapachone, cultured for 24 hours, treated with ATP (2.5 mM), and then cultured for additional 30 minutes, and the supernatant was collected. The release of cytokines (IL-1β and TNF-α) of RaW264.7 macrophages was quantified using each cell-free supernatant-ELISA set (Invitrogen, Billerica, MA, USA) by Invitrogen according to the manufacture's instruction, and is shown in FIG. 14.

[5] = 20, 40, 80, 100 mg/kg in diet with DDC, depending on the concentration
[6] = 0.1% DDC 3 days, then DDC + 20, 40, 80 mg/kg in diet for 4 days, depending on the concentration

CC1(C)CCC2=C(O1)c1ccccc1C(=O)C2=O [β-lapachone]
expression level of IL-1β increased by LPS and ATP [1]: reduced depending on the concentration | expression level of IL-18 increased by LPS and ATP [1]: reduced depending on the concentration | mRNA level of IL-1β in colon tissue [2]: significantly reduced | mRNA level of IL-6 in colon tissue [2]: significantly reduced | mRNA level of IL-18 in colon tissue [2]: significantly reduced | mRNA level of INF-γ in colon tissue [2]: significantly reduced | mRNA level of MCP-1 in colon tissue [2]: significantly reduced | mRNA level of TNF-α in colon tissue [2]: significantly reduced | mRNA level of TNF-β in colon tissue [2]: significantly reduced | ALP in the blood increased by DDC [3, 5]: inhibited | ALT in the blood increased by DDC [3, 5]: inhibited | AST in the blood increased by DDC [3, 5]: inhibited | bilirubin in the blood increased by DDC [3, 5]: inhibited | effect on blood indexes compared with positive controls ([3]; vs ursodeoxycholic acid 100 mg/kg and obeticholic acid 30 mg/kg): excellent effects compared with ursodeoxycholic acid (UDCA) and obeticholic acid (OCA) | ALP in the blood increased by DDC [4, 6]: inhibited | bilirubin in the blood increased by DDC [4, 6]: inhibited | effect on bilirubin and ALP compared with positive controls ([4]; treatment after 3 days DDC, positive control obeticholic acid 30 mg/kg): excellent effect compared with ursodeoxycholic acid (UDCA) and obeticholic acid (OCA) | transcriptional level of Co|1α1 in liver (fibrosis-related genes): inhibited | transcriptional level of Co|1α2 in liver (fibrosis-related genes): inhibited | transcriptional level of TGF-β1 in liver (fibrosis-related genes): inhibited | expression level of IL-1β protein increased by LPS and ATP (macrophage line Raw264.7): reduced depending on the concentration | expression level of TNF-α protein increased by LPS and ATP (macrophage line Raw264.7): reduced depending on the concentration
